Patent US10758534B2 (Vertex Pharmaceuticals Incorporated, priority 2014, dated 2020)

target: T1, F508del (Homo sapiens, UniProt P13569, DEL508-508); experiment: Protocol 1: membrane potential optical assay (FLIPR III, voltage sensing dye), identification of potentiator compounds; assay type: cell-based; settings: Table 3, compounds of Table 1
T1 construct: expressed in transfected cells
Outline: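 NIH3T3 F508del cells, 27° C × 24 hrs; compound/DMSO pretreat → redistribution dye load → single forskolin addition with Cl⁻ gradient (gluconate-substituted bath, HEPES pH 7.4). FLIPR III membrane-potential fluorescence read.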

T1 sequence (P13569 with tags, fused parts or gaps DEL508-508): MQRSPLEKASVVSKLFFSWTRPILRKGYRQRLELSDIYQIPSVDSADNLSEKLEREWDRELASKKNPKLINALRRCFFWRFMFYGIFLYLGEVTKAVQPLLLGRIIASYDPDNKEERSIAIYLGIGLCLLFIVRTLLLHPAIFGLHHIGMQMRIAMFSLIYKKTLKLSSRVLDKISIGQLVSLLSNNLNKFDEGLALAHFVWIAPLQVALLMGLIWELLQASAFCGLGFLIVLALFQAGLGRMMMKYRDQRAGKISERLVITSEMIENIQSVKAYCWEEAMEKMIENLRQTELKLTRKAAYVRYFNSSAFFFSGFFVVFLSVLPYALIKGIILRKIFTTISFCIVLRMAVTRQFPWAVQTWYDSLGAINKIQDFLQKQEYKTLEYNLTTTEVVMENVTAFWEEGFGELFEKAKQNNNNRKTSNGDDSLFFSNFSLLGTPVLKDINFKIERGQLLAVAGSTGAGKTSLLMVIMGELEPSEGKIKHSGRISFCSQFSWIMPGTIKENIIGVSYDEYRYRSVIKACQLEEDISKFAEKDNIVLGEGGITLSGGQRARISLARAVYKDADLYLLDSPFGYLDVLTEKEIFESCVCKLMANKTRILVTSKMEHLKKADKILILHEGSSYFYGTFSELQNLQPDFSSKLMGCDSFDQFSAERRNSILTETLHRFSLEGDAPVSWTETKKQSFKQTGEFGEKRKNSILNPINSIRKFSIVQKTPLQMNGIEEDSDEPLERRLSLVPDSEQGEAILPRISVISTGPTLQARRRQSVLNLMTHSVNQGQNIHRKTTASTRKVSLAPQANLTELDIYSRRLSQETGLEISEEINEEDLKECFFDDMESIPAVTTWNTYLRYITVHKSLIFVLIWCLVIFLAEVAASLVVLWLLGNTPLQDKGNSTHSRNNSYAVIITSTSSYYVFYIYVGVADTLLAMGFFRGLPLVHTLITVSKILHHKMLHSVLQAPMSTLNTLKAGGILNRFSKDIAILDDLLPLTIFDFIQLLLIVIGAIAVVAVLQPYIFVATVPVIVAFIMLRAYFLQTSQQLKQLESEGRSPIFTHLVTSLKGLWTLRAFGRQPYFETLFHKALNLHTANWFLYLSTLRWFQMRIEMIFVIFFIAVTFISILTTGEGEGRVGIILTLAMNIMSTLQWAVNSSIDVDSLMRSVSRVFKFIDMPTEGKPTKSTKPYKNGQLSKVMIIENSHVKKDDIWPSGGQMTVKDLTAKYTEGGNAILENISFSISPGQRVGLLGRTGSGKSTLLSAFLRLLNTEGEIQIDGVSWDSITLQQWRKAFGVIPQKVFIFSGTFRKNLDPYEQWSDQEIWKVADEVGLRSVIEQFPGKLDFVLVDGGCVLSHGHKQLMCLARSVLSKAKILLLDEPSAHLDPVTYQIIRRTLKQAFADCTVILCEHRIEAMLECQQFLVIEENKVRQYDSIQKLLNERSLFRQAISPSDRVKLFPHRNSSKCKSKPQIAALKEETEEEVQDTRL

Row | EC30 | Structure (SMILES)
1 | +++ (“+++” means <3 uM) | C[C@@H]1CN(c2nc(-n3ccc(OCC(C)(C)C)n3)ccc2C(=O)NS(=O)(=O)c2cccnc2N)C(C)(C)C1 [Compound 1975, N-[(2-amino-3-pyridyl)sulfonyl]-6-[3-(2,2-dimethylpropoxy)pyrazol-1-yl]-2-[(4S)-2,2,4-trimethylpyrrolidin-1-yl]pyridine-3-carboxamide]
2 | +++ (“+++” means <3 uM) | CC(=O)Nc1ncccc1S(=O)(=O)NC(=O)c1ccc(-c2ccc(OC(C)C)nc2)nc1N1C[C@@H](C)CC1(C)C [Compound 1976, N-[(2-acetamido-3-pyridyl)sulfonyl]-6-(6-isopropoxy-3-pyridyl)-2-[(4S)-2,2,4-trimethylpyrrolidin-1-yl]pyridine-3-carboxamide]
3 | +++ (“+++” means <3 uM) | CC1CN(c2ncccc2C(=O)NS(=O)(=O)c2cccc(Nc3ccc(OC(F)(F)F)cc3)n2)C(C)(C)C1 (centres unmarked) [Compound 1977, N—[[6-[4-(trifluoromethoxy)anilino]-2-pyridyl]sulfonyl]-2-(2,2,4-trimethylpyrrolidin-1-yl)pyridine-3-carboxamide]
4 | +++ (“+++” means <3 uM) | CC1CN(c2ncccc2C(=O)NS(=O)(=O)c2cccc(N(C)CCc3ccccc3)n2)C(C)(C)C1 (centres unmarked) [Compound 1978, N—[[6-[methyl(phenethyl)amino]-2-pyridyl]sulfonyl]-2-(2,2,4-trimethylpyrrolidin-1-yl)pyridine-3-carboxamide]
5 | +++ (“+++” means <3 uM) | COc1ncccc1-c1ccc(C(=O)NS(=O)(=O)c2cccnc2N)c(N2C[C@@H](C)CC2(C)C)n1 [Compound 1980, N-[(2-amino-3-pyridyl)sulfonyl]-6-(2-methoxy-3-pyridyl)-2-[(4S)-2,2,4-trimethylpyrrolidin-1-yl]pyridine-3-carboxamide]
6 | +++ (“+++” means <3 uM) | C[C@@H]1CN(c2nc(-c3cc(F)c(F)cc3F)ccc2C(=O)NS(=O)(=O)c2ccc[nH]c2=O)C(C)(C)C1 [Compound 1981, N-[(2-oxo-1H-pyridin-3-yl)sulfonyl]-6-(2,4,5-trifluorophenyl)-2-[(4S)-2,2,4-trimethylpyrrolidin-1-yl]pyridine-3-carboxamide]
7 | ++ (“++” means between 3 uM and 10 uM) | C[C@@H]1CN(c2nc(-c3ccc4[nH]ccc4c3)ccc2C(=O)NS(=O)(=O)c2ccc[nH]c2=O)C(C)(C)C1 [Compound 1982, 6-(1H-indol-5-yl)-N-[(2-oxo-1H-pyridin-3-yl)sulfonyl]-2-[(4S)-2,2,4-trimethylpyrrolidin-1-yl]pyridine-3-carboxamide]
8 | +++ (“+++” means <3 uM) | CC1CN(c2ncccc2C(=O)NS(=O)(=O)c2cccc(NCc3ccccc3Cl)n2)C(C)(C)C1 (centres unmarked) [Compound 1983, N—[[6-[(2-chlorophenyl)methylamino]-2-pyridyl]sulfonyl]-2-(2,2,4-trimethylpyrrolidin-1-yl)pyridine-3-carboxamide]
9 | ++ (“++” means between 3 uM and 10 uM) | C[C@@H]1CN(c2nc(C3=CCCN(C(=O)c4cccc(Cl)c4)C3)ccc2C(=O)NS(=O)(=O)c2cccc(N)n2)C(C)(C)C1 [Compound 1984, N-[(6-amino-2-pyridyl)sulfonyl]-6-[1-(3-chlorobenzoyl)-3,6-dihydro-2H-pyridin-5-yl]-2-[(4S)-2,2,4-trimethylpyrrolidin-1-yl]pyridine-3-carboxamide]
10 | ++ (“++” means between 3 uM and 10 uM) | CCCCCN1CCN(c2cccc(S(=O)(=O)NC(=O)c3cccnc3N3CC(C)CC3(C)C)n2)CC1 (centres unmarked) [Compound 1985, N—[[6-(4-pentylpiperazin-1-yl)-2-pyridyl]sulfonyl]-2-(2,2,4-trimethylpyrrolidin-1-yl)pyridine-3-carboxamide]
11 | +++ (“+++” means <3 uM) | CC1CN(c2ncccc2C(=O)NS(=O)(=O)c2cccc(N3Cc4cccc5cccc(c45)C3)n2)C(C)(C)C1 (centres unmarked) [Compound 1986, N—[[6-(1,3-dihydrobenzo[de]isoquinolin-2-yl)-2-pyridyl]sulfonyl]-2-(2,2,4-trimethylpyrrolidin-1-yl)pyridine-3-carboxamide]
12 | +++ (“+++” means <3 uM) | CC1CN(c2ncccc2C(=O)NS(=O)(=O)c2cccc(N3CCC(c4ccccc4)CC3)n2)C(C)(C)C1 (centres unmarked) [Compound 1987, N—[[6-(4-phenyl-1-piperidyl)-2-pyridyl]sulfonyl]-2-(2,2,4-trimethylpyrrolidin-1-yl)pyridine-3-carboxamide]
13 | +++ (“+++” means <3 uM) | CC1CCCC(Oc2cccc(S(=O)(=O)NC(=O)c3cccnc3N3CC(C)CC3(C)C)n2)C1 (centres unmarked) [Compound 1988, N—[[6-(3-methylcyclohexoxy)-2-pyridyl]sulfonyl]-2-(2,2,4-trimethylpyrrolidin-1-yl)pyridine-3-carboxamide]
14 | +++ (“+++” means <3 uM) | CC1CN(c2ncccc2C(=O)NS(=O)(=O)c2cccc(Oc3ccc4ccccc4n3)n2)C(C)(C)C1 (centres unmarked) [Compound 1989, N—[[6-(2-quinolyloxy)-2-pyridyl]sulfonyl]-2-(2,2,4-trimethylpyrrolidin-1-yl)pyridine-3-carboxamide]
15 | +++ (“+++” means <3 uM) | Cc1ccc(C)c(-c2ccc(C(=O)NS(=O)(=O)c3ccc[nH]c3=O)c(N3C[C@@H](C)CC3(C)C)n2)c1 [Compound 1990, 6-(2,5-dimethylphenyl)-N-[(2-oxo-1H-pyridin-3-yl)sulfonyl]-2-[(4S)-2,2,4-trimethylpyrrolidin-1-yl]pyridine-3-carboxamide]
16 | +++ (“+++” means <3 uM) | CC(C)c1cccc(-c2ccc(C(=O)NS(=O)(=O)c3cccnc3N)c(N3C[C@@H](C)CC3(C)C)n2)c1 [Compound 1991, N-[(2-amino-3-pyridyl)sulfonyl]-6-(3-isopropylphenyl)-2-[(4S)-2,2,4-trimethylpyrrolidin-1-yl]pyridine-3-carboxamide]
17 | +++ (“+++” means <3 uM) | CC1CN(c2ncccc2C(=O)NS(=O)(=O)c2cccc(OCc3ccsc3)n2)C(C)(C)C1 (centres unmarked) [Compound 1992, N—[[6-(3-thienylmethoxy)-2-pyridyl]sulfonyl]-2-(2,2,4-trimethylpyrrolidin-1-yl)pyridine-3-carboxamide]
18 | +++ (“+++” means <3 uM) | COc1cccc(OC)c1-c1ccc(C(=O)NS(=O)(=O)c2cccnc2N)c(N2C[C@@H](C)CC2(C)C)n1 [Compound 1994, N-[(2-amino-3-pyridyl)sulfonyl]-6-(2,6-dimethoxyphenyl)-2-[(4S)-2,2,4-trimethylpyrrolidin-1-yl]pyridine-3-carboxamide]

Row | Structure (SMILES) | EC30
19 | CC(C)COc1ccccc1-c1cnc(N2CC(C)CC2(C)C)c(C(=O)NS(=O)(=O)c2cccc(N)n2)c1 (centres unmarked) [Compound 1979, N-[(6-amino-2-pyridyl)sulfonyl]-5-(2-isobutoxyphenyl)-2-(2,2,4-trimethylpyrrolidin-1-yl)pyridine-3-carboxamide] | +++ (“+++” means <3 uM)
20 | CC(C)COc1cc(F)cc(-c2ccc(C(=O)NS(=O)(=O)c3cccc(N)n3)c(N3CC(C)CCC3(C)C)n2)c1 (centres unmarked) [Compound 1995, N-[(6-amino-2-pyridyl)sulfonyl]-6-(3-fluoro-5-isobutoxy-phenyl)-2-(2,2,5-trimethyl-1-piperidyl)pyridine-3-carboxamide] | +++ (“+++” means <3 uM)
